System: APP-PS1 mice
Experiment: Alzheimer's disease model, Aβ deposition (Thioflavin S staining)
Format: in vivo, mouse
Settings: 10 mg/kg ip for 4 weeks, vs saline
Experimental: PS1/APP mice (PS1M146V and APPSWE) (Howlett et al., Brain Res. 2004, 1017, 130-136) were used. Age-matched NTg controls were on the same background strain (C57bl6/J9).
Mice were transcardially perfused with ice-cold PBS (3 mL) followed by 4% paraformaldehyde (5 mL). Brains were extracted and fixed overnight in 30% sucrose-cryoprotectant solution. Coronal hippocampal sections 40 μm thick were cut on a cryostat and collected in TBS (0.1 M Tris, 0.9% saline, pH 7.4).
Free-floating hippocampal sections were washed with TBS (4×3 min). The sections were soaked in 0.5% thioflavin S (in 50/50 ethyl alcohol/distilled water, Sigma-Aldrich) for 10 min, followed by 2×3 min washes with 50% ethyl alcohol. Sections were washed again with TBS (2×3 min), mounted with minimal drying, and coverslipped with anti-fade mounting medium PVA-DABCO for microscopy.
Confocal images of immunolabeled tissue were obtained using 4× and 10× objective lenses on the Olympus Fluoview confocal microscope. Density of amyloid plaques was quantified by averaging the percent area staining positive (thresholded above background staining, as determined by software parameters and experimenter confirmation) within the hippocampus and cortex from 3-5 sections from each experimental animal using MetaMorph Software (Molecular Devices). […]

Cc1ccc2cccc(NC(=O)c3ccc(OC(C)C)cc3)c2n1 [Compound A12, 4-Isopropoxy-N-(2-methylquinolin-8-yl)benzamide]
amyloid plaques stained with Thioflavin S: reduced

Source: patent US20170281611A1, “QUINOLINES AND THEIR USE FOR TREATING ENDOPLASMIC RETICULUM STRESS-CAUSED DISEASES” (EIGER BIOPHARMACEUTICALS, INC., priority 2014, published 2017)
